Laboratory results reported in patent US6339045B1, “N-(unsubstituted or substituted)-4-substituted-6-(unsubstituted or substituted)phenoxy-2-pyridinecarboxamides or thiocarboxamides, processes for producing the same, and herbicides” (Kureha Kagaku Kogyo Kabushiki Kaisha, priority 1995, dated 2002).

Experiments:
[1] = tested on: common chickweed (Stellaria media); test: Herbicidal effect by foliage and soil treatment; assay type: in vivo; settings: evaluated after 14 days
Method in brief: (§1)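 Greenhouse pot test at 19–25 °C: spray of aqueous Tween 20 formulation onto foliage and soil of seedlings at cotyledonal–bifoliate stage, dose per area predetermined. Scoring on a rating scale after 14 days versus untreated.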

[2] = tested on: redroot pigweed (Amaranthus retroflexus); test: Herbicidal effect by foliage and soil treatment; assay type: in vivo; settings: evaluated after 14 days
Method in brief: as §1

[3] = tested on: common blackjack (Bidens pilosa); test: Herbicidal effect by foliage and soil treatment; assay type: in vivo; settings: evaluated after 14 days
Method in brief: as §1

[4] = tested on: velvetleaf (Abutilon theophrasti); test: Herbicidal effect by foliage and soil treatment; assay type: in vivo; settings: evaluated after 14 days
Method in brief: as §1

[5] = tested on: sicklepod (Cassia obtusifolia); test: Herbicidal effect by foliage and soil treatment; assay type: in vivo; settings: evaluated after 14 days
Method in brief: as §1

[6] = tested on: field bindweed (Convolvulus arvensis); test: Herbicidal effect by foliage and soil treatment; assay type: in vivo; settings: evaluated after 14 days
Method in brief: as §1

[7] = tested on: ivyleafspeedwell (Veronica hederaefolia); test: Herbicidal effect by foliage and soil treatment; assay type: in vivo; settings: evaluated after 14 days
Method in brief: as §1

[8] = tested on: kediock (Sinapis arvensis); test: Herbicidal effect by foliage and soil treatment; assay type: in vivo; settings: evaluated after 14 days
Method in brief: as §1

[9] = tested on: wild chamomile (Matricaria chamomilla); test: Herbicidal effect by foliage and soil treatment; assay type: in vivo; settings: evaluated after 14 days
Method in brief: as §1

[10] = tested on: cleavers (Galium aparine); test: Herbicidal effect by foliage and soil treatment; assay type: in vivo; settings: evaluated after 14 days
Method in brief: as §1

[11] = tested on: black nightshade (Solanum nigrum); test: Herbicidal effect by foliage and soil treatment; assay type: in vivo; settings: evaluated after 14 days
Method in brief: as §1

In the case of `CCS(=O)(=O)CCNC(=O)c1cc(OC)cc(Oc2cccc(C(F)(F)F)c2)n1` [Compound I-68, N-{2-(ethylsulfonyl)ethyl}-4-methoxy-6-{3-(trifluoromethyl)phenoxy}-2-pyridine carboxamide], the melting point is reported as 92 to 94 °C, the “herbicidal activity rating, SM (Stellaria media)” value (“herbicidal activity rating, SM” for short) ([1]; 10 g ai/10a) is reported as 4 (percentage of weeds killed was not less than 60% and less than 80%) and the “herbicidal activity rating, AR (Amaranthus retroflexus)” value (shortened to “herbicidal activity rating, AR”) ([2]; 10 g ai/10a) is reported as 5 (percentage of weeds killed was not less than 80%). The “herbicidal activity rating, BP (Bidens pilosa)” value (from here on “herbicidal activity rating, BP”) ([3]; 10 g ai/10a) was 4 (percentage of weeds killed was not less than 60% and less than 80%), the “herbicidal activity rating, AT (Abutilon theophrasti)” value ([4]; 10 g ai/10a) was 5 (percentage of weeds killed was not less than 80%) and the “herbicidal activity rating, CO (Cassia obtusifolia)” value (shortened to “herbicidal activity rating, CO”) ([5]; 10 g ai/10a) was 5 (percentage of weeds killed was not less than 80%). The “herbicidal activity rating, CA (Convolvulus arvensis)” value (from here on “herbicidal activity rating, CA”) ([6]; 10 g ai/10a) was 4 (percentage of weeds killed was not less than 60% and less than 80%), the “herbicidal activity rating, VH (Veronica hederaefolia)” value (“herbicidal activity rating, VH” for short) ([7]; 10 g ai/10a) was 5 (percentage of weeds killed was not less than 80%) and the “herbicidal activity rating, SA (Sinapis arvensis)” value (shortened to “herbicidal activity rating, SA”) ([8]; 10 g ai/10a) was 5 (percentage of weeds killed was not less than 80%). The “herbicidal activity rating, MC (Matricaria chamomilla)” value (from here on “herbicidal activity rating, MC”) ([9]; 10 g ai/10a) was 2 (percentage of weeds killed was not less than 20% and less than 40%), the “herbicidal activity rating, GA (Galium aparine)” value (shortened to “herbicidal activity rating, GA”) ([10]; 10 g ai/10a) was 5 (percentage of weeds killed was not less than 80%) and the “herbicidal activity rating, SN (Solanum nigrum)” value (from here on “herbicidal activity rating, SN”) ([11]; 10 g ai/10a) was 5 (percentage of weeds killed was not less than 80%).
In the case of `CC[S+]([O-])CCNC(=O)c1cc(OC)cc(Oc2cccc(C(F)(F)F)c2)n1` (stereo not shown) [Compound I-69, N-{2-(ethylsulfinyl)ethyl}-4-methoxy-6-{3-(trifluoromethyl)phenoxy}-2-pyridine carboxamide], the melting point is reported as 77 to 79 °C, the “herbicidal activity rating, SM” value ([1]; 10 g ai/10a) is reported as 4 (percentage of weeds killed was not less than 60% and less than 80%) and the “herbicidal activity rating, AR” value ([2]; 10 g ai/10a) is reported as 5 (percentage of weeds killed was not less than 80%). The “herbicidal activity rating, BP” value ([3]; 10 g ai/10a) was 3 (percentage of weeds killed was not less than 40% and less than 60%), the “herbicidal activity rating, AT (Abutilon theophrasti)” value ([4]; 10 g ai/10a) was 5 (percentage of weeds killed was not less than 80%) and the “herbicidal activity rating, CO” value ([5]; 10 g ai/10a) was 5 (percentage of weeds killed was not less than 80%). For the same molecule, the “herbicidal activity rating, CA” value ([6]; 10 g ai/10a) was 4 (percentage of weeds killed was not less than 60% and less than 80%), the “herbicidal activity rating, VH” value ([7]; 10 g ai/10a) was 5 (percentage of weeds killed was not less than 80%) and the “herbicidal activity rating, SA” value ([8]; 10 g ai/10a) was 5 (percentage of weeds killed was not less than 80%). For the same molecule, the “herbicidal activity rating, MC” value ([9]; 10 g ai/10a) was 3 (percentage of weeds killed was not less than 40% and less than 60%), the “herbicidal activity rating, GA” value ([10]; 10 g ai/10a) was 5 (percentage of weeds killed was not less than 80%) and the “herbicidal activity rating, SN” value ([11]; 10 g ai/10a) was 5 (percentage of weeds killed was not less than 80%).
In the case of `CC(C)NC(=O)c1cccc(Oc2cccc(C(F)(F)F)c2)n1` [control (a)], the “herbicidal activity rating, SM” value ([1]; 10 g ai/10a) is reported as 1 (percentage of weeds killed was less than 20%), the “herbicidal activity rating, SM” value ([1]; 25 g ai/10a) is reported as 1 (percentage of weeds killed was less than 20%) and the “herbicidal activity rating, SM” value ([1]; 62.5 g ai/10a) is reported as 1 (percentage of weeds killed was less than 20%). The “herbicidal activity rating, AR” value ([2]; 10 g ai/10a) was 3 (percentage of weeds killed was not less than 40% and less than 60%), the “herbicidal activity rating, AR” value ([2]; 25 g ai/10a) was 3 (percentage of weeds killed was not less than 40% and less than 60%) and the “herbicidal activity rating, AR” value ([2]; 62.5 g ai/10a) was 4 (percentage of weeds killed was not less than 60% and less than 80%). For the same molecule, the “herbicidal activity rating, BP” value ([3]; 10 g ai/10a) was 1 (percentage of weeds killed was less than 20%), the “herbicidal activity rating, BP” value ([3]; 25 g ai/10a) was 1 (percentage of weeds killed was less than 20%) and the “herbicidal activity rating, BP” value ([3]; 62.5 g ai/10a) was 1 (percentage of weeds killed was less than 20%). For the same molecule, the “herbicidal activity rating, AT (Abutilon theophrasti)” value ([4]; 10 g ai/10a) was 2 (percentage of weeds killed was not less than 20% and less than 40%), the “herbicidal activity rating, AT (Abutilon theophrasti)” value ([4]; 25 g ai/10a) was 3 (percentage of weeds killed was not less than 40% and less than 60%) and the “herbicidal activity rating, AT (Abutilon theophrasti)” value ([4]; 62.5 g ai/10a) was 3 (percentage of weeds killed was not less than 40% and less than 60%). The “herbicidal activity rating, CO” value ([5]; 10 g ai/10a) was 1 (percentage of weeds killed was less than 20%), the “herbicidal activity rating, CO” value ([5]; 25 g ai/10a) was 2 (percentage of weeds killed was not less than 20% and less than 40%) and the “herbicidal activity rating, CO” value ([5]; 62.5 g ai/10a) was 3 (percentage of weeds killed was not less than 40% and less than 60%). The “herbicidal activity rating, CA” value ([6]; 10 g ai/10a) was 2 (percentage of weeds killed was not less than 20% and less than 40%), the “herbicidal activity rating, CA” value ([6]; 25 g ai/10a) was 3 (percentage of weeds killed was not less than 40% and less than 60%) and the “herbicidal activity rating, CA” value ([6]; 62.5 g ai/10a) was 3 (percentage of weeds killed was not less than 40% and less than 60%). The “herbicidal activity rating, VH” value ([7]; 10 g ai/10a) was 3 (percentage of weeds killed was not less than 40% and less than 60%), the “herbicidal activity rating, VH” value ([7]; 25 g ai/10a) was 4 (percentage of weeds killed was not less than 60% and less than 80%) and the “herbicidal activity rating, VH” value ([7]; 62.5 g ai/10a) was 5 (percentage of weeds killed was not less than 80%). The “herbicidal activity rating, SA” value ([8]; 10 g ai/10a) was 3 (percentage of weeds killed was not less than 40% and less than 60%), the “herbicidal activity rating, SA” value ([8]; 25 g ai/10a) was 4 (percentage of weeds killed was not less than 60% and less than 80%) and the “herbicidal activity rating, SA” value ([8]; 62.5 g ai/10a) was 5 (percentage of weeds killed was not less than 80%). The “herbicidal activity rating, MC” value ([9]; 10 g ai/10a) was 1 (percentage of weeds killed was less than 20%), the “herbicidal activity rating, MC” value ([9]; 25 g ai/10a) was 1 (percentage of weeds killed was less than 20%) and the “herbicidal activity rating, MC” value ([9]; 62.5 g ai/10a) was 1 (percentage of weeds killed was less than 20%). The “herbicidal activity rating, GA” value ([10]; 10 g ai/10a) was 2 (percentage of weeds killed was not less than 20% and less than 40%), the “herbicidal activity rating, GA” value ([10]; 25 g ai/10a) was 3 (percentage of weeds killed was not less than 40% and less than 60%) and the “herbicidal activity rating, GA” value ([10]; 62.5 g ai/10a) was 4 (percentage of weeds killed was not less than 60% and less than 80%). The “herbicidal activity rating, SN” value ([11]; 10 g ai/10a) was 4 (percentage of weeds killed was not less than 60% and less than 80%), the “herbicidal activity rating, SN” value ([11]; 25 g ai/10a) was 4 (percentage of weeds killed was not less than 60% and less than 80%) and the “herbicidal activity rating, SN” value ([11]; 62.5 g ai/10a) was 5 (percentage of weeds killed was not less than 80%).
With `CCCNC(=O)c1cccc(Oc2cccc(C(F)(F)F)c2)n1` [control (b)] the “herbicidal activity rating, SM” value ([1]; 10 g ai/10a) was 4 (percentage of weeds killed was not less than 60% and less than 80%), the “herbicidal activity rating, AR” value ([2]; 10 g ai/10a) was 5 (percentage of weeds killed was not less than 80%) and the “herbicidal activity rating, BP” value ([3]; 10 g ai/10a) was 1 (percentage of weeds killed was less than 20%). The “herbicidal activity rating, AT (Abutilon theophrasti)” value ([4]; 10 g ai/10a) was 3 (percentage of weeds killed was not less than 40% and less than 60%), the “herbicidal activity rating, CO” value ([5]; 10 g ai/10a) was 3 (percentage of weeds killed was not less than 40% and less than 60%) and the “herbicidal activity rating, CA” value ([6]; 10 g ai/10a) was 2 (percentage of weeds killed was not less than 20% and less than 40%). For the same molecule, the “herbicidal activity rating, VH” value ([7]; 10 g ai/10a) was 5 (percentage of weeds killed was not less than 80%), the “herbicidal activity rating, SA” value ([8]; 10 g ai/10a) was 5 (percentage of weeds killed was not less than 80%) and the “herbicidal activity rating, MC” value ([9]; 10 g ai/10a) was 1 (percentage of weeds killed was less than 20%). The “herbicidal activity rating, GA” value ([10]; 10 g ai/10a) was 5 (percentage of weeds killed was not less than 80%) and the “herbicidal activity rating, SN” value ([11]; 10 g ai/10a) was 5 (percentage of weeds killed was not less than 80%).
With `CCCNC(=S)c1cccc(Oc2cccc(C(F)(F)F)c2)n1` [control (c)] the “herbicidal activity rating, SM” value ([1]; 10 g ai/10a) was 3 (percentage of weeds killed was not less than 40% and less than 60%), the “herbicidal activity rating, AR” value ([2]; 10 g ai/10a) was 5 (percentage of weeds killed was not less than 80%) and the “herbicidal activity rating, BP” value ([3]; 10 g ai/10a) was 1 (percentage of weeds killed was less than 20%). The “herbicidal activity rating, AT (Abutilon theophrasti)” value ([4]; 10 g ai/10a) was 3 (percentage of weeds killed was not less than 40% and less than 60%), the “herbicidal activity rating, CO” value ([5]; 10 g ai/10a) was 2 (percentage of weeds killed was not less than 20% and less than 40%) and the “herbicidal activity rating, CA” value ([6]; 10 g ai/10a) was 2 (percentage of weeds killed was not less than 20% and less than 40%). For the same molecule, the “herbicidal activity rating, VH” value ([7]; 10 g ai/10a) was 5 (percentage of weeds killed was not less than 80%), the “herbicidal activity rating, SA” value ([8]; 10 g ai/10a) was 5 (percentage of weeds killed was not less than 80%) and the “herbicidal activity rating, MC” value ([9]; 10 g ai/10a) was 1 (percentage of weeds killed was less than 20%). For the same molecule, the “herbicidal activity rating, GA” value ([10]; 10 g ai/10a) was 4 (percentage of weeds killed was not less than 60% and less than 80%) and the “herbicidal activity rating, SN” value ([11]; 10 g ai/10a) was 4 (percentage of weeds killed was not less than 60% and less than 80%).
